Assay: Receptor Radioligand Binding Studies: Human Embryonic Kidney 293 cells (HEK293) stably expressing rat orexin 1 receptor (Genebank accession number NM_001525) or Chinese ovary cells (CHO) stably expressing […] were grown to confluency in DMEM (Hyclone, cat #SH30022), 10% FBS, 1×Pen/Strep, 1× sodium pyruvate, 10 mM HEPES, 600 μg/mL G418 and DMEM/F12 (Gibco, Cat #11039), 10% FBS, 1×Pen/Strep, 600 μg/mL G418 media, respectively on 150 cm2 tissue culture plates, washed with 5 mM EDTA in PBS (HyClone Dulbecco's Phosphate Buffered Saline 1× with Calcium and Magnesium, Cat #SH30264.01, hereafter referred to simply as PBS) and scraped into 50 ml tubes. After centrifugation (2K×G, 5 min at 4° C.), the supernatant was aspirated and the pellets frozen and stored at −80° C. Cells were resuspended in PBS in the presence of 1 tablet of protease inhibitor cocktail (Roche, Cat. #11836145001) per 50 mL. Each cell pellet from a 15 cm plate was resuspended in 10 mL, stored on ice, and homogenized for 45 sec prior to addition to the reactions. Competition binding experiments in 96 well polypropylene plates were performed using [3H]-(1-(5-(2-fluoro-phenyl)-2-methyl-thiazol-4-yl)-1-((S)-2-(5-phenyl-(1,3,4)oxadiazol-2-ylmethyl)-pyrrolidin-1-yl)-methanone) (Moraveck Corporation, specific activity=35.3 Ci/mmol), diluted to a 10 nM concentration in PBS (4 nM final). Compounds were solubilized in 100% DMSO (Acros Organics, Cat. #61042-1000) and tested over a range of 7 concentrations (from 0.1 nM to 10 μM). The final concentration of DMSO in the reactions is equal to or less than 0.1%. Total and nonspecific binding was determined in the absence and presence of 10 μM almorexant. The total volume of each reaction is 200 μL (20 μL of diluted compounds, 80 μL of [3H]-(1-(5-(2-fluoro-phenyl)-2-methyl-thiazol-4-yl)-1-((S)-2-(5-phenyl-(1,3,4)oxadiazol-2-ylmethyl)-pyrrolidin-1-yl)-methanone) diluted in PBS and 100 μL of the cell suspension). Reactions were run for 60 min at room temperature and terminated by filtration through GF/C filter plates (PerkinElmer, Cat. #6005174) presoaked in 0.3% polyethylenimine using the cell harvester (PerkinElmer Filtermate). The plates were washed 3 times by aspirating 30 ml PBS through the plates. Plates were dried in 55° C. oven for 60 min, scintillation fluid was added, and the radioactivity was counted on a Topcount (Packard).

| Structure (SMILES) | Ki [µM] |
| --- | --- |
| Cc1ccc(C(=O)N2CCC[C@@H](Nc3nnc(C(F)(F)F)s3)[C@@H]2C)c(-n2nccn2)n1 (relative stereo) | > 10 |
| COc1ccc(C(=O)N2CCC[C@@H](Nc3ccc(C(F)(F)F)cn3)[C@@H]2C)c(Cl)n1 (relative stereo) | > 10 |
| Cc1ccc(C(=O)N2CCC[C@@H](N(C)c3ccc(C(F)(F)F)cn3)[C@@H]2C)c(-n2nccn2)n1 (relative stereo) | > 10 |
| COc1ccc(C(=O)N2CCC[C@@H](Nc3ncc(C(F)(F)F)cn3)[C@@H]2C)c(Cl)n1 (relative stereo) | > 10 |

— ChEMBL document CHEMBL5726080, “Substituted piperidine compounds and their use as orexin receptor modulators” (2017)
